Some test systems named below: ACHN renal; CCRF-CEM leukemia; HOP-62 NSCLC; K-562 leukemia; M14 melanoma; SF-539 CNS; UO-31 renal; CAKI-1 renal; T-47D breast.
Common to all, as to experiment: NCI tumour cell line growth inhibition, 48 h

Experimental findings from PubChem BioAssay (NCI) are described below.

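How tested: cells in 96-well plates exposed to compound for 48 hours at five concentrations. Abbreviation: GI50, concentration required for 50% inhibition of growth. Definition used: TGI = concentration required for complete inhibition of growth.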

As for `COC(CN1C(=O)c2cccc3cccc(c23)C1=O)OC`, the TGI in the assay on ACHN renal, in the assay with CCRF-CEM leukemia, in the assay with HOP-62 NSCLC, with K-562 leukemia, in the assay on M14 melanoma and in the assay on SF-539 CNS was above 100 µM throughout. In the assay on UO-31 renal, the TGI is above 100 µM.

Take `Clc1cc2nsnc2c(Cl)n1`: the TGI in the assay on ACHN renal was above 100 µM; in the assay on CAKI-1 renal, 24.5 µM; in the assay with CCRF-CEM leukemia, 27.1 µM; with HOP-62 NSCLC, above 100 µM; in the assay on K-562 leukemia it was 51.9 µM; with M14 melanoma, 29 µM. In addition, the values for the TGI with SF-539 CNS and in the assay on UO-31 renal were 46.1 µM and 39.8 µM, respectively.

Take `O=C(/C=C/c1ccccc1)NC1C=Nc2ccc(Cl)cc2NC1=O` (stereo not drawn): the TGI in the assay with ACHN renal is above 100 µM; in the assay with CAKI-1 renal, above 100 µM; in the assay on CCRF-CEM leukemia it was 33.5 µM; with HOP-62 NSCLC, above 100 µM; with K-562 leukemia, 59 µM; with M14 melanoma, 65.6 µM. Besides, the TGI in the assay on SF-539 CNS is 88.2 µM; in the assay on UO-31 renal, 87.8 µM.

Turning to `CCOc1ccc(NC(=O)C(=O)CC(=O)c2c[n+](=O)c3cc(C)c(C)cc3n2[O-])cc1`, the TGI with ACHN renal, in the assay with CAKI-1 renal, in the assay with CCRF-CEM leukemia, in the assay with HOP-62 NSCLC, in the assay with K-562 leukemia and with M14 melanoma was above 100 µM each time. Moreover, the TGI with SF-539 CNS and with UO-31 renal was above 100 µM in each case.

As for `CN1C(=O)C(C)(C)C2(SC(C)(C)C2(C)C)N(C)C1=S` (stereo not drawn), the TGI with ACHN renal, in the assay on CAKI-1 renal, in the assay on CCRF-CEM leukemia, with HOP-62 NSCLC, in the assay on K-562 leukemia and in the assay with M14 melanoma was above 100 µM throughout. Besides, the TGI with SF-539 CNS and in the assay on UO-31 renal was above 100 µM throughout.

Consider `COC1(OC)CCC2C1C1CCC(OC)(OC)C21` (stereo not drawn), for which the TGI in the assay with ACHN renal, with CAKI-1 renal, with CCRF-CEM leukemia, in the assay on HOP-62 NSCLC, with K-562 leukemia and in the assay with M14 melanoma was above 50 µM in each case. The TGI with SF-539 CNS and in the assay with UO-31 renal was above 50 µM throughout.

Take `N#CCCN(CCC#N)c1ccc(/C=C2\N=C(c3cc([N+](=O)[O-])ccc3Cl)OC2=O)cc1`: the TGI was above 100 µM with ACHN renal; above 100 µM with CAKI-1 renal; 95.7 µM in the assay with HOP-62 NSCLC; 40.7 µM with K-562 leukemia; above 100 µM with M14 melanoma; above 100 µM in the assay on SF-539 CNS. Moreover, the TGI in the assay with UO-31 renal is above 100 µM.

Turning to `CC(C)=CC(=O)C1c2cccc(O)c2C(=O)c2c(O)cc(C)cc21` (stereo not drawn), the TGI in the assay with ACHN renal is 4.77 µM; in the assay on CAKI-1 renal, 21.5 µM; in the assay with CCRF-CEM leukemia, above 100 µM; in the assay on HOP-62 NSCLC, 7.87 µM; in the assay on K-562 leukemia, above 100 µM; in the assay with M14 melanoma, 10.1 µM. Besides, the values for the TGI in the assay on SF-539 CNS and in the assay on UO-31 renal were 3.04 µM and 3.74 µM, respectively.

Take `O=C1C2C(C(=O)N1OS(=O)(=O)c1ccccc1)N(Cc1ccccc1)C(=O)N2Cc1ccccc1` (stereo not drawn): the TGI in the assay on ACHN renal, in the assay on CAKI-1 renal, in the assay with CCRF-CEM leukemia, in the assay on HOP-62 NSCLC, in the assay on K-562 leukemia and in the assay on M14 melanoma was above 100 µM in each case. Further, the TGI in the assay with SF-539 CNS and in the assay on UO-31 renal was above 100 µM throughout.

In the case of `Cc1ccc(N=Nc2ccc(N(CCC#N)CCC#N)cc2C)c(Br)c1`, the TGI in the assay on ACHN renal was above 100 µM; in the assay with CAKI-1 renal, 24.6 µM; in the assay with CCRF-CEM leukemia, above 100 µM; in the assay on HOP-62 NSCLC, 93 µM; in the assay with K-562 leukemia, above 100 µM; in the assay with M14 melanoma, 92.3 µM. Moreover, the TGI in the assay with SF-539 CNS and with UO-31 renal was above 100 µM throughout.

As to `CC1(C)CCc2c(c3c(c4c(=O)c(O)c(-c5ccc(O)cc5)oc24)OC(C)(C)CC3)O1`, the GI50 with ACHN renal is 48.9 µM; in the assay on CAKI-1 renal, above 100 µM; with CCRF-CEM leukemia it was above 100 µM; with HOP-62 NSCLC, 24.8 µM; with K-562 leukemia it was above 100 µM; with M14 melanoma, above 100 µM. In addition, the GI50 was 72.7 µM in the assay on T-47D breast and above 100 µM in the assay with UO-31 renal. The TGI in the assay on ACHN renal is above 100 µM; in the assay with CAKI-1 renal, above 100 µM; with CCRF-CEM leukemia, above 100 µM; in the assay on HOP-62 NSCLC, 54.7 µM; with K-562 leukemia, above 100 µM; with M14 melanoma, above 100 µM. For the same compound, the TGI with T-47D breast and with UO-31 renal was above 100 µM throughout.

For the compound `COC(=O)CC1CCN(C#N)CC1CC[N+](=O)[O-]` (stereo not drawn), the TGI with ACHN renal, with CAKI-1 renal, in the assay on CCRF-CEM leukemia, with HOP-62 NSCLC, with K-562 leukemia and with M14 melanoma was above 100 µM in each case. Further, the TGI with SF-539 CNS and in the assay on UO-31 renal was above 100 µM in each case.

For the compound `COc1cc2c(cc1OC)-c1c3cc(O)ccc3nn[n+]1CC2`, the TGI in the assay on CCRF-CEM leukemia, with HOP-62 NSCLC, with K-562 leukemia, in the assay with M14 melanoma and in the assay on SF-539 CNS was above 100 µM each time.

For `CC(C)C/C(CC(=O)CCC(=O)Nc1ccccc1[N+](=O)[O-])=N\NC(=O)c1cc2ccccc2cc1O`, the TGI in the assay with ACHN renal is above 100 µM; in the assay on CAKI-1 renal, above 100 µM; in the assay with CCRF-CEM leukemia, 59.6 µM; with HOP-62 NSCLC, above 100 µM; in the assay with K-562 leukemia it was above 100 µM; in the assay on M14 melanoma it was above 100 µM. For the same compound, the TGI is 82.3 µM in the assay with SF-539 CNS and above 100 µM with UO-31 renal.

For the compound `CCCCCCCCCCCCCCCCCC(CCCCCCCCCCCCCCCCC)OP(=O)(O)O`, the TGI with ACHN renal, in the assay on CAKI-1 renal, in the assay on CCRF-CEM leukemia, with K-562 leukemia, in the assay with M14 melanoma and with UO-31 renal was above 100 µM each time.

For `Cc1nc2ccccc2c(=O)n1-c1ccccc1I`, the TGI with ACHN renal, with CAKI-1 renal, with CCRF-CEM leukemia, in the assay with HOP-62 NSCLC, with K-562 leukemia and with M14 melanoma was above 100 µM each time. Moreover, the TGI in the assay with UO-31 renal was above 100 µM.
